Reference: paper PMC7044277 (Nature Communications, 2020)
Where “and” joins values, the source holds several entries; their conditions need not be identical. Equal entries are not always repeated.

Experiments:
5HT1E = 5HT1E (Homo sapiens, UniProt P28566); assay: β-arrestin2 recruitment (Tango); assay type: cell-based; conditions: Fig_S10i
DRD2 F1103.28L = biological target: T1, DRD2 F1103.28L (Homo sapiens, UniProt P14416, F110L); assay: β-arrestin2 recruitment (Tango), mutant; assay type: cell-based
T1 construct: expressed in transfected cells; host or cells: HEK293T (ATCC CRL-11268)

DRD2 F1103.28A [1] = biological target: T2, DRD2 F1103.28A (Homo sapiens, UniProt P14416, F110A); assay type: binding; parameters: expressed in transfected cells; host or cells: HEK293T (ATCC CRL-11268); conditions: DRD2 F1103.28A; read-out: Ki
[2] = system: serotonin receptor (subtype not given; reference agonist serotonin); assay: β-arrestin2 recruitment (Tango), agonist activity, source data Fig_S10l; assay type: cell-based, human; conditions: drug alone
[3] = biological target: DRD2 (D2 long receptor) wild-type (Homo sapiens, UniProt P14416); assay: Radioligand competition binding, [3H]-N-methylspiperone, HEK293T membranes; conditions: DRD2; [3H]-methylspiperone (0.8-1.0 nM); read-out: Ki
DRD2 F1103.28A [4] = biological target: T2, DRD2 F1103.28A; assay: β-arrestin2 recruitment (Tango), mutant; assay type: cell-based; parameters: expressed in transfected cells; host or cells: HEK293T (ATCC CRL-11268)
DRD2 (D2 long receptor) = DRD2 (D2 long receptor) (Homo sapiens, UniProt P14416); assay: β-arrestin2 recruitment (Tango), HTLA cells; assay type: cell-based; conditions: for response, concentration-response data point (replicates): Fig_S10a, drug alone
Sequence of DRD2 (D2 long receptor) (P14416 whole entry): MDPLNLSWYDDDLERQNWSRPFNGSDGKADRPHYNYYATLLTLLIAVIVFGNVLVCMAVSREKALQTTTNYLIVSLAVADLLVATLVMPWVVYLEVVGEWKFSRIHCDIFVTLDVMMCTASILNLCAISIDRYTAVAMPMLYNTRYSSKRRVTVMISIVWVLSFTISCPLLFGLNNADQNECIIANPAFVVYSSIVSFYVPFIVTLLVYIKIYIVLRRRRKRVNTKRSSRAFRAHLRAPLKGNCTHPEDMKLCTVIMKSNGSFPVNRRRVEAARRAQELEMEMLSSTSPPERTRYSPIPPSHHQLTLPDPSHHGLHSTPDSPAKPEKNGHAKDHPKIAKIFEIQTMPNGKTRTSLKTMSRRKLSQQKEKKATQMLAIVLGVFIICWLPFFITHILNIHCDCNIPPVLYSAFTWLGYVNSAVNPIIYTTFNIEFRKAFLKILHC

Sequence of 5HT1E (P28566 whole entry): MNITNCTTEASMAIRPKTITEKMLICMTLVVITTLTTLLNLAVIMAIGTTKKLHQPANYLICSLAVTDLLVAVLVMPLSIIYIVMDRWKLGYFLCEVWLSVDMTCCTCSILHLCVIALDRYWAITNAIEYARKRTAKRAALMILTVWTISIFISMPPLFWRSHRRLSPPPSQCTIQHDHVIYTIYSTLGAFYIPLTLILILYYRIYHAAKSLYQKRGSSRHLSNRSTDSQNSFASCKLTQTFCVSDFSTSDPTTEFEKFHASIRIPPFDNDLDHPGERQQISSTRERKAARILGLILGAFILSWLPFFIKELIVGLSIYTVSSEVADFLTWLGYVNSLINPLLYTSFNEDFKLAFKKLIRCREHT
T1 sequence (P14416 whole entry F110L): as the sequence (P14416 whole entry) above, with F110L counted along it
T2 sequence (P14416 whole entry F110A): as the sequence (P14416 whole entry) above, with F110A counted along it
Sequence of DRD2 (D2 long receptor) wild-type (P14416 whole entry): as the sequence (P14416 whole entry) above

For `CCOc1cccc2cc([C@@H](C)NCC3(O)CCCCC3)oc12` [O4RE6], the “β-arrestin2 recruitment response, agonist mode (single replicate values)” value (5HT1E; Log[Drug] -5.52) was -0.8838, the “β-arrestin2 recruitment response, agonist mode (single replicate values)” value (5HT1E; Log[Drug] -6) was 5.169 and -3.421 and -7.045 and -2.335 and -9.923 and 2.004 and -14.6813 and -14.4526 and -10.0186 and the “β-arrestin2 recruitment response, agonist mode (single replicate values)” value (5HT1E; Log[Drug] -6.52) was 5.136 and -8.797 and -1.582 and 6.94 and -5.772 and 9.5977 and -9.147 and -14.4969 and -14.6019. The “β-arrestin2 recruitment response, agonist mode (single replicate values)” value (5HT1E; Log[Drug] -7) was -9.403 and -3.356 and -7.031 and 6.361 and -8.019 and 5.611 and -6.317 and -9.482 and -17.1569, the “β-arrestin2 recruitment response, agonist mode (single replicate values)” value (5HT1E; Log[Drug] -7.52) was -7.7314 and -4.654 and -9.0776 and 5.71 and 2.776 and -4.782 and -16.2446 and -11.396 and -8.341 and the “β-arrestin2 recruitment response, agonist mode (single replicate values)” value (5HT1E; Log[Drug] -8) was -0.303 and 2.682 and 0.8105 and -16.5035 and -1.474 and 1.2682 and -16.075 and -2.697 and -15.9171. For the same compound, the “β-arrestin2 recruitment response, agonist mode (single replicate values)” value (5HT1E; Log[Drug] -8.52) was -6.877 and -0.9842 and -10.6793 and 4.799 and 9.189 and -4.891 and 2.59 and -7.1 and -6.491, the “β-arrestin2 recruitment response, agonist mode (single replicate values)” value (5HT1E; Log[Drug] -9) was -3.28 and 6.173 and 0.4053 and -14.2337 and -0.6567 and 5.487 and -22.7397 and -14.6836 and -5.277 and the “β-arrestin2 recruitment response, agonist mode (single replicate values)” value (5HT1E; Log[Drug] -9.52) was -0.2537 and -8.594 and -3.456 and -0.4529 and -8.792 and -9.322 and -17.3288 and -4.524 and -7.744. For the same compound, the “β-arrestin2 recruitment response, agonist mode (single replicate values)” value (5HT1E; Log[Drug] -10) was -3.52 and -2.38 and 3.183 and -31.9257 and 29.8123 and -9.337 and -10.0295 and -4.283 and -12.1769, the “β-arrestin2 recruitment response, agonist mode (single replicate values)” value (5HT1E; Log[Drug] -10.52) was 0.1347 and 0.5117 and -4.0638 and -13.472 and -7.0659 and -13.7571 and -9.427 and -7.368 and -17.0465 and the “β-arrestin2 recruitment response, agonist mode (single replicate values)” value (5HT1E; Log[Drug] -11) was 7.882 and 2.36 and 5.579 and -8.103 and -1.831 and -9.017 and -8.127 and -1.8482 and -12.9803. It also gave an EC50 (DRD2 F1103.28L) of 215 nM, an Emax (DRD2 F1103.28L; read-out: Emax relative to quinpirole response) of 7.76% and a Ki (DRD2 F1103.28A [1]) of 490 nM. The “response, Fig_S10l, replicate values” ([2]; Log[Drug] -6.52) was -3.85, the “response, Fig_S10l, replicate values” ([2]; Log[Drug] -7) was -18.1455 and -1.053 and 5.44 and -6.097 and -0.7764 and -1.627 and 21.5386 and -8.446 and -23.0116 and the “response, Fig_S10l, replicate values” ([2]; Log[Drug] -7.52) was 10.4314 and -7.0535 and -12.5511 and -5.4086 and -2.507 and -5.8801 and -14.9973 and 5.012 and -22.748. The “response, Fig_S10l, replicate values” ([2]; Log[Drug] -8) was -3.494 and -0.9897 and -1.101 and -6.133 and 9.37 and -6.103 and -6.764 and -19.0522 and -18.9699, the “response, Fig_S10l, replicate values” ([2]; Log[Drug] -8.52) was -14.6079 and -9.137 and 0.1161 and -2.858 and 0.4788 and -6.718 and 5.642 and 9.781 and -19.7014 and the “response, Fig_S10l, replicate values” ([2]; Log[Drug] -9) was -7.429 and -0.8033 and 2.514 and -1.371 and -2.511 and 6.172 and -12.5406 and 13.3677 and 9.079. The “response, Fig_S10l, replicate values” ([2]; Log[Drug] -9.52) was -7.024 and -4.6241 and 4.382 and 5.183 and -6.777 and -3.91 and -13.0464 and 1.094 and -1.351, the “response, Fig_S10l, replicate values” ([2]; Log[Drug] -10) was -1.517 and -3.218 and -6.7099 and 1.544 and 10.647 and -1.892 and 3.1372 and 12.1979 and 15.1176 and the “response, Fig_S10l, replicate values” ([2]; Log[Drug] -10.52) was 7.131 and -7.271 and -11.3727 and 2.195 and -7.95 and -8.5307 and 3.862 and 0.6607 and 18.5102. The “response, Fig_S10l, replicate values” ([2]; Log[Drug] -11) was 7.402 and 9.101 and -6.117 and -2.283 and 7.1162 and 16.1339 and -5.988 and 21.1185 and -1.691, the “response, Fig_S10l, replicate values” ([2]; Log[Drug] -11.52) was 20.0426 and 4.341 and -34.8779 and 9.958 and -2.256 and -5.643 and 0.02142 and 3.842 and -14.699 and the “response, Fig_S10l, replicate values” ([2]; Log[Drug] -12) was 1.452 and 8.392 and -9.8386 and -3.912 and 6.115 and -2.202 and -0.8107 and 10.4431 and -9.6291. For the same compound, the Ki [3] was 690 nM, the EC50 (DRD2 F1103.28A [4]) was > 10000 nM and the “β-arrestin2 recruitment agonist activity” value (DRD2 (D2 long receptor); DRD2, Tango) was “full agonist”. The EC50 (DRD2 (D2 long receptor); DRD2, β-arrestin2 recruitment (Tango), read-out: EC50 ± SEM) was 48.8 ± 9.47 nM, the “response, concentration-response data point (replicates)” value (shortened to “response … (replicates)”) (DRD2 (D2 long receptor); Log[Drug] -5) was 104.045 and 116.205 and 96.7104 and 116.434 and 93.993 and 105.729 and 95.4582 and 106.414 and 85.5052 and the “response … (replicates)” value (DRD2 (D2 long receptor); Log[Drug] -5.52) was 89.1788 and 85.4445 and 90.8217 and 84.5796 and 80.0855 and 101.122 and 96.0613 and 81.9697 and 99.3385. The “response … (replicates)” value (DRD2 (D2 long receptor); Log[Drug] -6) was 82.8973 and 82.5495 and 79.2486 and 94.3704 and 78.2631 and 78.6908 and 80.3531 and 91.2175 and 73.5194, the “response … (replicates)” value (DRD2 (D2 long receptor); Log[Drug] -6.52) was 72.8482 and 85.473 and 74.6038 and 82.6009 and 103.942 and 82.378 and 70.1593 and 68.4699 and 74.397 and the “response … (replicates)” value (DRD2 (D2 long receptor); Log[Drug] -7) was 71.4846 and 69.3009 and 62.1089 and 68.8602 and 55.9009 and 59.7861 and 54.6819 and 54.8285 and 54.3284. For the same compound, the “response … (replicates)” value (DRD2 (D2 long receptor); Log[Drug] -7.52) was 50.7715 and 50.9759 and 58.0792 and 57.6214 and 43.2407 and 45.9376 and 55.9749 and 62.7315 and 56.5853, the “response … (replicates)” value (DRD2 (D2 long receptor); Log[Drug] -8) was 39.7841 and 36.3747 and 29.4664 and 31.1292 and 29.8397 and 30.2988 and 27.2382 and 26.622 and 26.0732 and the “response … (replicates)” value (DRD2 (D2 long receptor); Log[Drug] -8.52) was 13.2168 and 14.3867 and 13.161 and 13.9303 and 10.9069 and 10.856 and 10.5462 and 11.4912 and 11.2421. The “response … (replicates)” value (DRD2 (D2 long receptor); Log[Drug] -9) was 7.123 and 6.617 and 6.837 and 5.043 and 6.064 and 6.895 and 5.588 and 6.122 and 5.826, the “response … (replicates)” value (DRD2 (D2 long receptor); Log[Drug] -11) was 5.0524 and the “response … (replicates)” value (DRD2 (D2 long receptor); Log[Drug] -11.52) was 4.975 and 5.004 and 4.993 and 4.845 and 4.81 and 4.615 and 4.945 and 4.7318 and 4.6555. For the same compound, the “response … (replicates)” value (DRD2 (D2 long receptor); Log[Drug] -12) was 4.9053 and 4.975 and 5.325 and 4.582 and 4.593 and 4.629 and 5.065 and 4.845 and 4.581, the Emax (DRD2 (D2 long receptor); HTLA, read-out: Emax relative to quinpirole response, DRD2, Tango) was 99.6% and the “β-arrestin2 recruitment response at DRD2 (source data, replicate values)” value (“β-arrestin2 recruitment response at DRD2” for short) (DRD2 (D2 long receptor); Log[Drug] -5) was 73.5777 and 57.7969 and 60.7943 and 65.7822 and 71.9755 and 71.4753 and 62.0106. For the same compound, the “β-arrestin2 recruitment response at DRD2” value (DRD2 (D2 long receptor); Log[Drug] -5.52) was 50.6787 and 47.7474 and 41.401 and 56.0167 and 52.8546 and 51.367 and 55.6817, the “β-arrestin2 recruitment response at DRD2” value (DRD2 (D2 long receptor); Log[Drug] -6) was 39.3966 and 41.1099 and 37.2084 and 41.7585 and 38.5021 and 38.079 and 42.2149 and the “β-arrestin2 recruitment response at DRD2” value (DRD2 (D2 long receptor); Log[Drug] -6.52) was 17.548 and 17.9218 and 22.2395 and 30.2893 and 22.7451 and 19.4102 and 21.7916.
